# Tests used:
# Test in all cases: cells
# CP66-MEL = format: functional, cell-based, Homo sapiens; conditions: Homo sapiens, CP66-MEL;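 also: growth inhibition of CP66-MEL cells determined in a cell viability assay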
# Description: SANGER: Inhibition of human CP66-MEL cell growth in a cell viability assay.
# Calu-6 = format: functional, cell-based, Homo sapiens; conditions: Homo sapiens, Calu-6;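 also: growth of human Calu-6 cells, read out by a cell viability assay, IC50 marking inhibition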
# Description: SANGER: Inhibition of human Calu-6 cell growth in a cell viability assay.
# D-263MG = format: functional, cell-based, Homo sapiens; conditions: Homo sapiens, D-263MG
# Description: SANGER: Inhibition of human D-263MG cell growth in a cell viability assay.
# ES7 = format: functional, cell-based, Homo sapiens; conditions: Homo sapiens, ES7;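 also: growth inhibition of cultured human ES7 cells, read out as cell viability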
# Description: SANGER: Inhibition of human ES7 cell growth in a cell viability assay.
# GT3TKB = format: functional, cell-based, Homo sapiens; conditions: Homo sapiens, GT3TKB;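 also: growth inhibition of the cell line, read out with a cell viability assay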
# Description: SANGER: Inhibition of human GT3TKB cell growth in a cell viability assay.
# JVM-2 = format: functional, cell-based; conditions: Homo sapiens;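 also: growth inhibition of JVM-2 cells determined by a cell viability assay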
# Description: SANGER: Inhibition of human JVM-2 cell growth in a cell viability assay.
# KM-H2 = format: functional, cell-based; conditions: Homo sapiens;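 also: growth inhibition of KM-H2 cells, read out by a cell viability assay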
# Description: SANGER: Inhibition of human KM-H2 cell growth in a cell viability assay.
# LC-2-ad = format: functional, cell-based, Homo sapiens; conditions: Homo sapiens, LC-2-ad;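 also: growth inhibition of human LC-2-ad cells, read out with a cell viability assay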
# Description: SANGER: Inhibition of human LC-2-ad cell growth in a cell viability assay.
# MFM-223 = format: functional, cell-based, Homo sapiens; conditions: Homo sapiens, MFM-223
# Description: SANGER: Inhibition of human MFM-223 cell growth in a cell viability assay.
# NCI-H1650 = format: functional, cell-based, Homo sapiens; conditions: Homo sapiens, NCI-H1650;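 also: growth inhibition of human NCI-H1650 cells measured by a cell viability assay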
# Description: SANGER: Inhibition of human NCI-H1650 cell growth in a cell viability assay.
# NCI-H446 = format: functional, cell-based; conditions: Homo sapiens;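 also: growth inhibition of NCI-H446 cells determined by a cell viability assay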
# Description: SANGER: Inhibition of human NCI-H446 cell growth in a cell viability assay.
# NCI-H720 = format: functional, cell-based; conditions: Homo sapiens;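 also: growth inhibition of human NCI-H720 cells determined by a cell viability assay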
# Description: SANGER: Inhibition of human NCI-H720 cell growth in a cell viability assay.
# NH-12 = format: functional, cell-based, Homo sapiens; conditions: Homo sapiens, NH-12;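 also: growth inhibition of NH-12 cells, read out with a cell viability assay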
# Description: SANGER: Inhibition of human NH-12 cell growth in a cell viability assay.
# NMC-G1 = format: functional, cell-based, Homo sapiens; conditions: Homo sapiens, NMC-G1;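 also: growth inhibition of the NMC-G1 cell line, measured with a cell viability read-out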
# Description: SANGER: Inhibition of human NMC-G1 cell growth in a cell viability assay.
# ONS-76 = format: functional, cell-based, Homo sapiens; conditions: Homo sapiens, ONS-76;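 also: growth inhibition of human ONS-76 cells, read out with a cell viability assay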
# OS-RC-2 = format: functional, cell-based, Homo sapiens; conditions: Homo sapiens, OS-RC-2;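 also: growth inhibition of human OS-RC-2 cells, measured by a cell viability assay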
# Description: SANGER: Inhibition of human OS-RC-2 cell growth in a cell viability assay.
# SK-N-DZ = format: functional, cell-based, Homo sapiens; conditions: Homo sapiens, SK-N-DZ;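 also: growth inhibition of the cancer cell line, read out through a viability assay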
# Description: SANGER: Inhibition of human SK-N-DZ cell growth in a cell viability assay.
# SK-UT-1 = format: functional, cell-based, Homo sapiens; conditions: Homo sapiens, SK-UT-1;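 also: growth inhibition of SK-UT-1 cells, measured by a cell viability assay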
# Description: SANGER: Inhibition of human SK-UT-1 cell growth in a cell viability assay.
# TE-1 = format: functional, cell-based, Homo sapiens; conditions: Homo sapiens, TE-1;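 also: growth inhibition of the human TE-1 cell line, read out with a cell viability assay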
# Description: SANGER: Inhibition of human TE-1 cell growth in a cell viability assay.
# A253 cell line = format: functional, cell-based, Homo sapiens; conditions: Homo sapiens, A253;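 also: growth inhibition of A253 cells, read out with a cell viability assay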
# Description: SANGER: Inhibition of human A253 cell growth in a cell viability assay.
# A388 = format: functional, cell-based, Homo sapiens; conditions: Homo sapiens, A388;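 also: growth inhibition of human A388 cells, read out with a cell viability assay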
# Description: SANGER: Inhibition of human A388 cell growth in a cell viability assay.
# COLO-320-HSR = format: functional, cell-based; conditions: Homo sapiens;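 also: growth inhibition of COLO-320-HSR cells, determined with a cell viability assay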
# Description: SANGER: Inhibition of human COLO-320-HSR cell growth in a cell viability assay.
# HCE-4 = format: functional, cell-based, Homo sapiens; conditions: Homo sapiens, HCE-4;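 also: cell viability assay measuring inhibition of growth in the human HCE-4 cell line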
# Description: SANGER: Inhibition of human HCE-4 cell growth in a cell viability assay.
SMILES,IC50 (CP66-MEL) [nM],IC50 (Calu-6) [nM],IC50 (D-263MG) [nM],IC50 (ES7) [nM],IC50 (GT3TKB) [nM],IC50 (JVM-2) [nM],IC50 (KM-H2) [nM],IC50 (LC-2-ad) [nM],IC50 (MFM-223) [nM],IC50 (NCI-H446) [nM],IC50 (NCI-H720) [nM],IC50 (NH-12) [nM],IC50 (NMC-G1) [nM],IC50 (ONS-76) [nM],IC50 (OS-RC-2) [nM],IC50 (SK-N-DZ) [nM],IC50 (SK-UT-1) [nM],IC50 (TE-1) [nM],IC50 (A253 cell line) [nM],IC50 (A388) [nM],further results
C=C1C(=O)O[C@@H]2C3O[C@]3(C)CC/C=C(\C)CC[C@@H]12 (some centres not stated),> 5000,> 5000,> 5000,> 5000,> 5000,> 5000,> 5000,> 5000,> 5000,> 5000,> 5000,> 5000,> 5000,> 5000,> 5000,4650,> 5000,> 5000,> 5000,> 5000,IC50 (NCI-H1650): > 5000 nM; IC50 (COLO-320-HSR): > 5000 nM
CC1=C2C[C@H]3[C@@H](CC=C4C[C@@H](O)CC[C@@]43C)[C@@H]2CC[C@]12O[C@@H]1C[C@H](C)CN[C@H]1[C@H]2C [CYCLOPAMINE],> 16000,> 16000,> 16000,> 16000,> 16000,> 16000,> 16000,> 16000,> 16000,> 16000,> 16000,> 16000,> 16000,> 16000,5870,> 16000,> 16000,> 16000,> 16000,> 16000,IC50 (NCI-H1650): > 16000 nM; IC50 (COLO-320-HSR): > 16000 nM
CS(=O)(=O)CCNCc1ccc(-c2ccc3ncnc(Nc4ccc(OCc5cccc(F)c5)c(Cl)c4)c3c2)o1 [LAPATINIB],> 2000,> 2000,> 2000,> 2000,> 2000,> 2000,> 2000,> 2000,> 2000,> 2000,> 2000,> 2000,> 2000,> 2000,1990,> 2000,> 2000,> 2000,1970,723,IC50 (NCI-H1650): > 2000 nM; IC50 (COLO-320-HSR): > 2000 nM
CCc1nc(N)nc(N)c1-c1ccc(Cl)cc1 [PYRIMETHAMINE],> 20000,> 20000,> 20000,14800,> 20000,> 20000,12000,> 20000,> 20000,> 20000,> 20000,> 20000,> 20000,9860,2610,> 20000,> 20000,9920,> 20000,> 20000,IC50 (NCI-H1650): > 20000 nM; IC50 (COLO-320-HSR): 4000 nM
O=C(/C=C/c1ccccc1)NC(NC(=S)Nc1cccc2cccnc12)C(Cl)(Cl)Cl (configuration not stated) [SALUBRINAL],> 16000,> 16000,> 16000,> 16000,> 16000,> 16000,> 16000,> 16000,> 16000,> 16000,7570,> 16000,> 16000,> 16000,> 16000,> 16000,> 16000,> 16000,> 16000,> 16000,IC50 (NCI-H1650): > 16000 nM; IC50 (COLO-320-HSR): > 16000 nM
CN1CCN(CCOc2cc(OC3CCOCC3)c3c(Nc4c(Cl)ccc5c4OCO5)ncnc3c2)CC1 [SARACATINIB],> 2000,> 2000,> 2000,> 2000,> 2000,> 2000,> 2000,> 2000,> 2000,> 2000,> 2000,> 2000,> 2000,> 2000,1890,1850,> 2000,1440,> 2000,> 2000,IC50 (HCE-4): > 2000 nM; IC50 (COLO-320-HSR): > 2000 nM
CO[C@H]1C[C@@H]2CC[C@@H](C)[C@@](O)(O2)C(=O)C(=O)N2CCCC[C@H]2C(=O)O[C@H]([C@H](C)C[C@@H]2CC[C@@H](O)[C@H](OC)C2)CC(=O)[C@H](C)/C=C(\C)[C@@H](O)[C@@H](OC)C(=O)[C@H](C)C[C@H](C)/C=C/C=C/C=C/1C [SIROLIMUS],> 100,> 100,> 100,> 100,> 100,> 100,> 100,0.423,> 100,> 100,25.4,> 100,33.7,> 100,0.652,> 100,16.8,> 100,> 100,44.8,IC50 (HCE-4): > 100 nM; IC50 (NCI-H1650): > 100 nM; IC50 (COLO-320-HSR): > 100 nM
CNC(=O)c1cc(Oc2ccc(NC(=O)Nc3ccc(Cl)c(C(F)(F)F)c3)cc2)ccn1 [SORAFENIB],> 4000,> 4000,> 4000,> 4000,> 4000,> 4000,> 4000,> 4000,> 4000,> 4000,> 4000,> 4000,> 4000,> 4000,> 4000,> 4000,> 4000,> 4000,> 4000,1590,IC50 (COLO-320-HSR): > 4000 nM
CCC(=O)N1CCN(c2ccc(-n3c(=O)ccc4cnc5ccc(-c6cnc7ccccc7c6)cc5c43)cc2C(F)(F)F)CC1 [TORIN1],314,165,661,> 1200,109,> 1200,> 1200,21.4,> 1200,169,550,> 1200,34.5,131,23.2,147,22.6,285,989,68.9,IC50 (HCE-4): 38.6 nM; IC50 (NCI-H1650): > 1200 nM; IC50 (COLO-320-HSR): 131 nM
Cc1cc(Nc2cc(N3CCN(C)CC3)nc(Sc3ccc(NC(=O)C4CC4)cc3)n2)n[nH]1 [TOZASERTIB],> 2000,> 2000,> 2000,> 2000,1280,> 2000,> 2000,87.9,> 2000,> 2000,> 2000,> 2000,> 2000,665,> 2000,962,160,> 2000,> 2000,341,IC50 (HCE-4): 881 nM; IC50 (NCI-H1650): > 2000 nM; IC50 (COLO-320-HSR): > 2000 nM
